Reference: patent publication US20250215029A1 (Recludix Pharma, Inc., priority 2022, published 2025)

Legend:
[1] = biological target: T1, Recombinant STAT6 protein (STAT6 (W123-T658)) (Homo sapiens, UniProt P42226); experiment: STAT6 Fluorescence Polarization (FP) Assay; type: binding; conditions: STAT6 250 nM, probe 5-FAM-Ap[…]-NH2 2 nM, 45-minute incubation; read-out: STAT6 (FP assay IC50)
T1 construct: Recombinant STAT6 protein (STAT6 (W123-T658))
T1 sequence (P42226 123-658): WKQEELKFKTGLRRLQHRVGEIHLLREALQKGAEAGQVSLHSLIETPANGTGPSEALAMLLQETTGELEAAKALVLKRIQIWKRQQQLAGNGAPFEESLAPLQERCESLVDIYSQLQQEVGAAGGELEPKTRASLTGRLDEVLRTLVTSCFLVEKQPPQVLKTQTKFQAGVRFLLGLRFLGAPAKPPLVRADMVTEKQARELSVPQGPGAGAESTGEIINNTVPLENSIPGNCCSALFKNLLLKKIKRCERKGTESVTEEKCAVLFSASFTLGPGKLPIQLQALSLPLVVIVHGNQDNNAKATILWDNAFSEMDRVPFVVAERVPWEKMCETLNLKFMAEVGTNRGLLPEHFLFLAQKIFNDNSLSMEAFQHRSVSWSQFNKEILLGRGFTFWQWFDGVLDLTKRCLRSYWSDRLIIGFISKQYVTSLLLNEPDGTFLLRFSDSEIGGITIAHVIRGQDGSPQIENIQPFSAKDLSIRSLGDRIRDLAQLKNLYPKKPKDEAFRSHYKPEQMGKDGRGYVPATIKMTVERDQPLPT
How it was run: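 Competitive FP binding: recombinant STAT6 (W123-T658) at 250 nM, labeled phosphotyrosine peptide at 2 nM, compounds at 1% DMSO, 45 min at RT before reading. IC50 values were obtained from nonlinear regression of mP versus log concentration.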

[2] = biological target: T2, Recombinant STAT3 protein (STAT3 (G127-I722)) (Homo sapiens, UniProt P40763); experiment: STAT3 Fluorescence Polarization (FP) Assay; type: binding; conditions: STAT3 25 nM, probe 5-FAM-GpYLPQTV-NH2 2 nM, 45-minute incubation; read-out: STAT3 (FP assay IC50)
T2 construct: Recombinant STAT3 protein (STAT3 (G127-I722))
T2 sequence (P40763 127-722): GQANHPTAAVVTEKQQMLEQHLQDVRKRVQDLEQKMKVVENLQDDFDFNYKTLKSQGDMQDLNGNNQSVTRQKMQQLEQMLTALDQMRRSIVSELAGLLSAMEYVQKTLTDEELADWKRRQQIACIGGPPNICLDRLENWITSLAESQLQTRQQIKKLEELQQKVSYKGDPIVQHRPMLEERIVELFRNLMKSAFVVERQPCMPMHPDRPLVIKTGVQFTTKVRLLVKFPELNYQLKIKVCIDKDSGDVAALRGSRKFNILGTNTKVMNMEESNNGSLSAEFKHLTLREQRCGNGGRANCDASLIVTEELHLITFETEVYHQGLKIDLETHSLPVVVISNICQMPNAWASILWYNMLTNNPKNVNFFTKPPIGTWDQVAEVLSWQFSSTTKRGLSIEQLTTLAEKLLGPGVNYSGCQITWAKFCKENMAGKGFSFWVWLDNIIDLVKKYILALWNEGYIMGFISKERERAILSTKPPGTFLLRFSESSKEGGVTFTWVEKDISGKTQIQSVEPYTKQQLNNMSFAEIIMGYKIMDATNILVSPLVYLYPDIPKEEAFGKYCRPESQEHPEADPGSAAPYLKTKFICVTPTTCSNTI
How it was run: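 Displacement of a fluorescent phosphotyrosine peptide (5-FAM-GpYLPQTV-NH2, 2 nM) from 25 nM recombinant STAT3 G127-I722 was monitored by FP after 45 min at room temperature.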

Compound | IC50 [1] | IC50 [2]
CN(C(=O)[C@@H]1CC[C@@H]2CCCC[C@H](NC(=O)c3cc4cc(C(F)(F)P(=O)(O)O)ccc4[nH]3)C(=O)N21)c1ccccc1 [Compound 1, (difluoro(2-(((3S,6S,10aS)-3-(methyl(phenyl)carbamoyl)-5-oxodecahydropyrrolo[1,2-a]azocin-6-yl)carbamoyl)-1H-indol-5-yl)methyl)phosphonic acid] | 0.3 to 3 µM | > 10 µM
O=C(N[C@H]1CC[C@@H](O)C[C@H]2CC[C@@H](C(=O)N3CC(C(=O)N4CCOCC4)C3)N2C1=O)c1cc2cc(C(F)(F)P(=O)(O)O)ccc2s1 [Compound 2, (difluoro(2-(((3S,6S,9R,10aR)-9-hydroxy-3-(3-(morpholine-4-carbonyl)azetidine-1-carbonyl)-5-oxodecahydropyrrolo [1,2-a]azocin-6-yl)carbamoyl)benzo[b]thiophen-5-yl)methyl) phosphonic acid] | 3 to 30 µM | 0.1 to 1 µM
O=C(N[C@H]1C[C@H](O)CC[C@H]2CC[C@@H](C(=O)N3CC(C(=O)N4CCOCC4)C3)N2C1=O)c1cc2cc(C(F)(F)P(=O)(O)O)ccc2s1 [Compound 3, (difluoro(2-(((3S,6S,8R, 10aR)-8-hydroxy-3-(3-(morpholine-4-carbonyl)azetidine-1-carbonyl)-5-oxodeca-hydropyrrolo[1,2-a]azocin-6-yl)carbamoyl)benzo[b]thiophen-5-yl)methyl)phosphonic acid] | 3 to 30 µM | 0.1 to 1 µM
O=C(N[C@H]1C[C@@H](O)CC[C@H]2CC[C@@H](C(=O)N3CC(C(=O)N4CCOCC4)C3)N2C1=O)c1cc2cc(C(F)(F)P(=O)(O)O)ccc2s1 [Compound 4, (difluoro(2-(((3S,6S,8S,10aR)-8-hydroxy-3-(3-(morpholine-4-carbonyl)azetidine-1-carbonyl)-5-oxodecahydropyrrolo [1,2-a]azocin-6-yl)carbamoyl)benzo[b]thiophen-5-yl)methyl) phosphonic acid] | 3 to 30 µM | 0.1 to 1 µM
O=C(N[C@H]1CC[C@H](O)C[C@H]2CC[C@@H](C(=O)N3CC(C(=O)N4CCOCC4)C3)N2C1=O)c1cc2cc(C(F)(F)P(=O)(O)O)ccc2s1 [Compound 5, (difluoro(2-(((3S,6S,9S,10aR)-9-hydroxy-3-(3-(morpholine-4-carbonyl)azetidine-1-carbonyl)-5-oxodecahydropyrrolo [1,2-a]azocin-6-yl)carbamoyl)benzo[b]thiophen-5-yl)methyl)phosphonic acid] | 3 to 30 µM | 0.1 to 1 µM
O=C(N[C@H]1CC[C@@H](OCc2ccccc2)C[C@H]2CC[C@@H](C(=O)N3CC(C(=O)N4CCOCC4)C3)N2C1=O)c1cc2cc(C(F)(F)P(=O)(O)O)ccc2s1 [Compound 6, ((2-(((3S,6S,9R,10aR)-9-(benzyloxy)-3-(3-(morpholine-4-carbonyl)azetidine-1-carbonyl)-5-oxodecahydropyrrolo [1,2-a]azocin-6-yl)carbamoyl)benzo[b]thiophen-5-yl)difluoromethyl) phosphonic acid] | 3 to 30 µM | 0.1 to 1 µM
O=C(N[C@H]1C[C@H](OCc2ccccc2)CC[C@H]2CC[C@@H](C(=O)N3CC(C(=O)N4CCOCC4)C3)N2C1=O)c1cc2cc(C(F)(F)P(=O)(O)O)ccc2s1 [Compound 7, ((2-(((3S,6S,8R, 10aR)-8-(benzyloxy)-3-(3-(morpholine-4-carbonyl)azetidine-1-carbonyl)-5-oxodecahydropyrrolo [1,2-a]azocin-6-yl)carbamoyl)benzo[b]thiophen-5-yl)difluoromethyl) phosphonic acid] | 3 to 30 µM | 0.1 to 1 µM
O=C(N[C@H]1C[C@@H](OCc2ccccc2)CC[C@H]2CC[C@@H](C(=O)N3CC(C(=O)N4CCOCC4)C3)N2C1=O)c1cc2cc(C(F)(F)P(=O)(O)O)ccc2s1 [Compound 8, ((2-(((3S,6S,8S,10aR)-8-(benzyloxy)-3-(3-(morpholine-4-carbonyl)azetidine-1-carbonyl)-5-oxodecahydropyrrolo [1,2-a]azocin-6-yl)carbamoyl)benzo [b]thiophen-5-yl)difluoromethyl) phosphonic acid] | 3 to 30 µM | 0.1 to 1 µM
CCO[C@@H]1CC[C@H](NC(=O)c2cc3cc(C(F)(F)P(=O)(O)O)ccc3s2)C(=O)N2[C@H](CC[C@H]2C(=O)N2CC(C(=O)N3CCOCC3)C2)C1 [Compound 9, ((2-(((3S,6S,9R,10aR)-9-ethoxy-3-(3-(morpholine-4-carbonyl)azetidine-1-carbonyl)-5-oxodecahydropyrrolo [1,2-a]azocin-6-yl)carbamoyl)benzo[b]thiophen-5-yl)difluoromethyl) phosphonic acid] | 3 to 30 µM | 0.1 to 1 µM
CCO[C@H]1CC[C@H]2CC[C@@H](C(=O)N3CC(C(=O)N4CCOCC4)C3)N2C(=O)[C@@H](NC(=O)c2cc3cc(C(F)(F)P(=O)(O)O)ccc3s2)C1 [Compound 10, ((2-(((3S,6S,8S,10aR)-8-ethoxy-3-(3-(morpholine-4-carbonyl)azetidine-1-carbonyl)-5-oxodecahydropyrrolo [1,2-a]azocin-6-yl)carbamoyl)benzo[b]thiophen-5-yl)difluoromethyl) phosphonic acid] | 3 to 30 µM | 0.1 to 1 µM
CCO[C@@H]1CC[C@H]2CC[C@@H](C(=O)N3CC(C(=O)N4CCOCC4)C3)N2C(=O)[C@@H](NC(=O)c2cc3cc(C(F)(F)P(=O)(O)O)ccc3s2)C1 [Compound 11, ((2-(((3S,6S,8R,10aR)-8-ethoxy-3-(3-(morpholine-4-carbonyl)azetidine-1-carbonyl)-5-oxodecahydropyrrolo [1,2-a]azocin-6-yl)carbamoyl)benzo[b]thiophen-5-yl)difluoromethyl) phosphonic acid] | 3 to 30 µM | 0.1 to 1 µM
N#C[C@H]1CN(C(=O)[C@@H]2CC[C@@H]3CC[C@H](O)C[C@H](NC(=O)c4cc5cc(C(F)(F)P(=O)(O)O)ccc5s4)C(=O)N32)C[C@@H]1c1ccccc1 [Compound 12, ((2-(((3S,6S,8S,10aR)-3-((3R,4S)-3-cyano-4-phenylpyrrolidine-1-carbonyl)-8-hydroxy-5-oxodecahydropyrrolo [1,2-a]azocin-6-yl)carbamoyl)benzo[b]thiophen-5-yl)difluoromethyl) phosphonic acid] | ≤ 0.3 µM | 1 to 10 µM
C[C@]1(O)CC[C@H](NC(=O)c2cc3cc(C(F)(F)P(=O)(O)O)ccc3s2)C(=O)N2[C@H](CC[C@H]2C(=O)N2CC(C(=O)N3CCOCC3)C2)C1 [Compound 13, (difluoro(2-(((3S,6S,9S,10aR)-9-hydroxy-9-methyl-3-(3-(morpholine-4-carbonyl)azetidine-1-carbonyl)-5-oxodecahydropyrrolo [1,2-a]azocin-6-yl)carbamoyl)benzo [b]thiophen-5-yl)methyl) phosphonic acid] | 3 to 30 µM | < 0.1 µM
O=C(N[C@H]1CC[C@H](O)C[C@H]2CC[C@@H](C(=O)N3CC(n4ccnc4)C3)N2C1=O)c1cc2cc(C(F)(F)P(=O)(O)O)ccc2s1 [Compound 15, ((2-(((3S,6S,9S,10aR)-3-(3-(1H-imidazol-1-yl)azetidine-1-carbonyl)-9-hydroxy-5-oxodecahydropyrrolo [1,2-a]azocin-6-yl)carbamoyl)benzo[b]thiophen-5-yl)difluoromethyl) phosphonic acid] | 0.3 to 3 µM | < 0.1 µM
O=C(N[C@H]1CC[C@H](O)C[C@H]2CC[C@@H](C(=O)N3CC(c4cccnc4)C3)N2C1=O)c1cc2cc(C(F)(F)P(=O)(O)O)ccc2s1 [Compound 16, (difluoro(2-(((3S,6S,9S,10aR)-9-hydroxy-5-oxo-3-(3-(pyridin-3-yl)azetidine-1-carbonyl)decahydropyrrolo[1,2-a]azocin-6-yl)carbamoyl)benzo[b]thiophen-5-yl)methyl) phosphonic acid] | 0.3 to 3 µM | < 0.1 µM
C[C@@]1(O)CC[C@H]2CC[C@@H](C(=O)N3CC(C(=O)N4CCOCC4)C3)N2C(=O)[C@@H](NC(=O)c2cc3cc(C(F)(F)P(=O)(O)O)ccc3s2)C1 [Compound 17, (difluoro(2-(((3S,6S,8R,10aR)-8-hydroxy-8-methyl-3-(3-(morpholine-4-carbonyl)azetidine-1-carbonyl)-5-oxodecahydropyrrolo [1,2-a]azocin-6-yl)carbamoyl)benzo[b]thiophen-5-yl)methyl) phosphonic acid] | 3 to 30 µM | < 0.1 µM
